The values below come from US20240409558A1, “IRREVERSIBLE INHIBITORS OF KRAS” (BIOMEA FUSION, INC., priority 2021, published 2024).

SMILES strings stand for the structures.

As usually defined, the IC50 is the concentration that inhibits the measured activity by half.

The subject of one test is human KRAS G12C mutated cell line MIA PaCa-2. The experiment in a line: Inhibition of proliferation of MIA PaCa-2 cells (CellTiter-Glo, 7 day). The format is cell-based. The conditions noted are these: 168 h, Table 3, 7 day, mean, read-out: MIA PaCa-2 IC50 (μM) 7 day Mean. The source says: The present example evaluates the ability of compounds provided herein to inhibit proliferation of KRAS mutant cells.
The proliferation inhibitory effect was investigated in the human KRAS G12C mutated cell line MIA PaCa-2 (Yunis et al., 1977, Int. J. Cancer 19(1):128-135; ATCC catalog no. CRL-1420). Cells were maintained in RPMI-1640 medium (ThermoFisher catalog no. 61870036) supplemented with 10% of Heat Inactivated FBS (ThermoFisher catalog no. A31605) and 1% Pen-Strep (ThermoFisher catalog no. 10378016) and cultured at 37° C. in a humidified incubator with 5% CO2. Cell lines were grown by adhering to culture flasks, and the cells were maintained in a range 70%-80% confluency.
ATP is present in all metabolically active cells and is considered as a marker for cell viability and proliferation. Metabolic cell activity was determined using the CellTiter-Glo kit (Promega catalog no. G7572), an ATP monitoring system based on the production of luminescence by the reaction of ATP with added UltraGlo® recombinant luciferase (Kawano et al., 2016, PLOS One, 8; 11(7):e0158888), according to the supplier's experimental recommendations. The assay was based on a 96 well plate format.
Test compounds were dissolved at 10 mM in DMSO (Sigma catalog no. D8418; purity >99.9%) and stored at −20° C. Eight concentrations of test compound were assessed in duplicate in an individual test occasion in parallel in the selected cell lines. MRTX-849 and AMG-510 were used as reference compounds and tested in duplicate at eight concentrations. 100% of proliferation is represented by the untreated cells (0.2% DMSO).
On the day of the experiment (TO), cells were detached with TrypLE (ThermoFisher catalog no. 12604054) and quantified using the Vi-CELL XR Cell Viability (Beckman Coulter) analyzer and diluted with fresh medium to obtain the cell density of about 1000 cells per 200 μL medium. 200 μL of cell suspension were added into wells in the 96 well plate.
After 2 hours from seeding cells, compounds were added using a D300e compound dispenser (Tecan Trading AG) at desired concentrations with shaking between each compound dispensed. Cell plates containing 200 μL/well were incubated at 37° C. in a humidified incubator with 5% CO2.
On day T3, 150 μL of growth media per well were removed from plates containing the samples, 150 uL fresh growth media were added to each well, and fresh compounds were added using a D300e compound dispenser (Tecan Trading AG) at desired concentrations with shaking between each compound dispensed. Cell plates containing 200 uL/well were incubated at 37° C. in a humidified incubator with 5% CO2. On day T7 plates containing the samples were equilibrated at room temperature for approximately 15 min, and then 40 μL/well of the Promega CellTiterGlo® reagent was added. Contents were mixed for 30 minutes on an orbital shaker to induce cell lysis. Luminescence was read using a Synergy Neo 2 (Agilent Technologies.
Data was expressed as % of inhibition compared to the 0.2% DMSO negative control, and is calculated as follows: % inhibition=100−[(RLU sample)×100/(RLU controls*)], where * indicates the average for 0.2% DMSO. […]
On the day of the experiment (TO), cells were detached with TrypLE (ThermoFisher catalog no. 12604054), quantified using the Vi-CELL XR Cell Viability (Beckman Coulter) analyzer and resuspended in fresh medium at a cell density of about 1000 cells per 200 μL medium. 200 μL of cell suspension were added to each well of a 96 well plate.
Two hours after seeding cells, compounds were added at desired concentrations using a D300e compound dispenser (Tecan Trading AG) with shaking after each compound addition. Assay plates were incubated at 37° C. in a humidified incubator with 5% CO2.
On day 3 (T3) 150 μL of medium from assay plates were removed. 150 μL fresh medium and compounds were added at desired concentrations using a D300e compound dispenser (Tecan Trading AG) with shaking after each compound addition. […]
As to `C=CC(=O)N1CCC(CC)(c2nc(OC[C@@]34CCCN3C[C@H](F)C4)nc3c(F)c(-c4cc(O)cc(Cl)c4C4CC4)ncc23)CC1` [Compound 332, 1-[4-[7-(3-chloro-2-cyclopropyl-5-hydroxy-phenyl)-8-fluoro-2-[[(2R,8S)-2-fluoro-1,2,3,5,6,7-hexahydropyrrolizin-8-yl]methoxy]pyrido[4,3-d]pyrimidin-4-yl]-4-ethyl-1-piperidyl]prop-2-en-1-one], the IC50 was more than 1 µM.
On to `C=CC(=O)N1C2CCC1CC(c1nc(OC[C@@]34CCCN3C[C@H](F)C4)nc3c(F)c(-c4cc(O)cc5ccc(F)c(F)c45)ncc13)C2` (some centres unmarked) [Compound 333], for which the IC50 was determined as 1.75 µM.
Regarding `C=CC(=O)N1CCC(C)(c2nc(OC[C@@]34CCCN3C[C@H](F)C4)nc3c(F)c(-c4cc(O)cc(Cl)c4C4CC4)ncc23)CC1` [Compound 335], the IC50 came out at 0.858 µM.

The same test, now with this note: 168 h, Table 4, 7 day, mean, read-out: MIA PaCa-2 IC50 (μM) 7 day Mean.
Consider `Oc1cc2cccc(-c3ncc4c(N5CC6CCC(C5)N6)nc(OC[C@@]56CCCN5C[C@H](F)C6)nc4c3F)c2c(F)c1F` [Compound 401, 5-[4-(3,8-diazabicyclo[3.2.1]octan-3-yl)-8-fluoro-2-[[(2R,8S)-2-fluoro-1,2,3,5,6,7-hexahydropyrrolizin-8-yl]methoxy]pyrido[4,3-d]pyrimidin-7-y1]-3,4-difluoro-naphthalen-2-ol], for which the IC50 was more than 1 µM.
Regarding `Oc1cc(-c2ncc3c(C45CCNCC4C5)nc(OC[C@@]45CCCN4C[C@H](F)C5)nc3c2F)c2ccccc2c1` (stereo partly drawn) [Compound 403, 4-[4-(3-azabicyclo[4.1.0]heptan-6-yl)-8-fluoro-2-[[(2R,8S)-2-fluoro-1,2,3,5,6,7-hexahydropyrrolizin-8-yl]methoxy]pyrido[4,3-d]pyrimidin-7-yl]naphthalen-2-ol], the IC50 worked out at 7.83 µM.
Turning to `Oc1cc(Cl)c(C2CC2)c(-c2cc3nc(OC[C@@]45CCCN4C[C@H](F)C5)nc(N4CC5CCC(C4)N5)c3cc2F)c1` [Compound 404, 3-chloro-4-cyclopropyl-5-[4-(3,8-diazabicyclo[3.2.1]octan-3-yl)-6-fluoro-2-[[(2R,8S)-2-fluoro-1,2,3,5,6,7-hexahydropyrrolizin-8-yl]methoxy]quinazolin-7-yl]phenol], the concentration for half-maximal inhibition (IC50) is more than 1 µM.
On to `Oc1cc(Cl)c(C2CC2)c(-c2cc3nc(OC[C@@]45CCCN4C[C@H](F)C5)nc(N4CCNC5(CC5)C4)c3cc2F)c1` [Compound 405, 3-chloro-4-cyclopropyl-5-[4-(4,7-diazaspiro[2.5]octan-7-y1)-6-fluoro-2-[[(2R,8S)-2-fluoro-1,2,3,5,6,7-hexahydropyrrolizin-8-yl]methoxy]quinazolin-7-yl]phenol], for which the IC50 was more than 1 µM.
For the compound `Oc1cc(Cl)c(C2CC2)c(-c2cnc3c(N4C[C@H]5C[C@@H]4CN5)nc(OC[C@@]45CCCN4C[C@H](F)C5)nc3c2)c1` [Compound 406, 3-chloro-4-cyclopropyl-5-[4-[(1R,4R)-2,5-diazabicyclo[2.2.1]heptan-2-yl]-2-[[(2R,8S)-2-fluoro-1,2,3,5,6,7-hexahydropyrrolizin-8-yl]methoxy]pyrido[3,2-d]pyrimidin-7-yl]phenol], the IC50 was more than 1 µM.
Take `N#C[C@H]1CNCCN1c1nc(OC[C@@]23CCCN2C[C@H](F)C3)nc2cc(F)c(-c3cccc4cccc(Cl)c34)cc12` [Compound 407, (2R)-1-[6-(8-chloro-1-naphthyl)-7-fluoro-2-[[(2R,8S)-2-fluoro-1,2,3,5,6,7-hexahydropyrrolizin-8-yl]methoxy]quinazolin-4-yl]piperazine-2-carbonitrile]: the IC50 was more than 1 µM.
In the case of `Fc1cc2c(N3CCNCC34CC4)nc(OC[C@@]34CCCN3C[C@H](F)C4)nc2cc1-c1cccc2cccc(Cl)c12` [Compound 408, 7-(8-chloro-1-naphthyl)-4-(4,7-diazaspiro[2.5]octan-4-yl)-6-fluoro-2-[[(2R,8S)-2-fluoro-1,2,3,5,6,7-hexahydropyrrolizin-8-yl]methoxy]quinazoline], the 50% inhibitory concentration (IC50) is more than 1 µM.
`Oc1cc(Cl)c(C2CC2)c(-c2ccc3c(N4CCNC5(CC5)C4)nc(OC[C@@]45CCCN4C[C@H](F)C5)nc3c2F)c1` [Compound 409, 3-chloro-4-cyclopropyl-5-[4-(4,7-diazaspiro[2.5]octan-7-yl)-8-fluoro-2-[[(2R,8S)-2-fluoro-1,2,3,5,6,7-hexahydropyrrolizin-8-yl]methoxy]quinazolin-7-yl]phenol]: the IC50 is more than 1 µM.
`Oc1cc(Cl)c(C2CC2)c(-c2cnc3c(N4CCNC5(CC5)C4)nc(OC[C@@]45CCCN4C[C@H](F)C5)nc3c2)c1` [Compound 410]: the IC50 was more than 1 µM.
For `Fc1cc2c(N3C[C@H]4C[C@@H]3CN4)nc(OC[C@@]34CCCN3C[C@H](F)C4)nc2cc1-c1cccc2cccc(Cl)c12` [Compound 411, 7-(8-chloro-1-naphthyl)-4-[(1R,4R)-2,5-diazabicyclo[2.2.1]heptan-2-y1]-6-fluoro-2-[[(2R,8S)-2-fluoro-1,2,3,5,6,7-hexahydropyrrolizin-8-yl]methoxy]quinazoline], the IC50 is more than 1 µM.
`Oc1cc(Cl)c(C2CC2)c(-c2cc3nc(OC[C@@]45CCCN4C[C@H](F)C5)nc(N4CCNCC45CC5)c3cc2F)c1` [Compound 412, 3-chloro-4-cyclopropyl-5-[4-(4,7-diazaspiro[2.5]octan-4-yl)-6-fluoro-2-[[(2R,8S)-2-fluoro-1,2,3,5,6,7-hexahydropyrrolizin-8-yl]methoxy]quinazolin-7-yl]phenol]: the IC50 is more than 1 µM.
As for `C[C@@H]1CNCCN1c1nc(OC[C@@]23CCCN2C[C@H](F)C3)nc2cc(-c3c(O)cccc3C3CC3)cnc12` [Compound 413], the IC50 was more than 1 µM.
On the same count and under the same terms, next, `Oc1cc(Cl)c(C2CC2)c(-c2cnc3c(N4CCNCC45CC5)nc(OC[C@@]45CCCN4C[C@H](F)C5)nc3c2)c1` [Compound 414, 3-chloro-4-cyclopropyl-5-[4-(4,7-diazaspiro[2.5]octan-4-yl)-2-[[(2R,8S)-2-fluoro-1,2,3,5,6,7-hexahydropyrrolizin-8-yl]methoxy]pyrido[3,2-d]pyrimidin-7-yl]phenol]: more than 1 µM; `N#C[C@H]1CNCCN1c1nc(OC[C@@]23CCCN2C[C@H](F)C3)nc2c(F)c(-c3cc(O)cc(Cl)c3C3CC3)ccc12` [Compound 415, (2R)-1-[7-(3-chloro-2-cyclopropyl-5-hydroxy-phenyl)-8-fluoro-2-[[(2R,8S)-2-fluoro-1,2,3,5,6,7-hexahydropyrrolizin-8-yl]methoxy]quinazolin-4-y1]piperazine-2-carbonitrile]: more than 1 µM; `N#CC1CNCCN1c1nc(OC[C@@]23CCCN2C[C@H](F)C3)nc2cc(-c3cc(O)cc(Cl)c3C3CC3)cnc12` (stereo partly drawn) [Compound 416, 1-[7-(3-chloro-2-cyclopropyl-5-hydroxy-phenyl)-2-[[(2R,8S)-2-fluoro-1,2,3,5,6,7-hexahydropyrrolizin-8-yl]methoxy]pyrido[3,2-d]pyrimidin-4-yl]piperazine-2-carbonitrile]: more than 1 µM.
For `Oc1cc(Cl)c(C2CC2)c(-c2cc3nc(OC[C@@]45CCCN4C[C@H](F)C5)nc(N4C[C@H]5C[C@@H]4CN5)c3cc2F)c1` [Compound 417], the IC50 was more than 1 µM.
`Oc1cccc(Cl)c1-c1cc(F)c2c(N3C[C@H]4C[C@@H]3CN4)nc(OC[C@@]34CCCN3C[C@H](F)C4)nc2c1` [Compound 418]: the IC50 was more than 1 µM.
